In EP0791071B1, “ASSAY FOR PROLINE IMINOPEPTIDASE AND OTHER HYDROLYTIC ACTIVITIES” (LITMUS CONCEPTS, INC., priority 1994, dated 1996):
Read-outs that look alike come from different tables or passages of the source. Non-standard residues stand in square brackets, D forms with d. Residues, ends and D or L forms follow the SMILES beside them. *: point of attachment. Sta = CC(C)C[C@H](N)[C@@H](O)CC(=O)O; AMC = Cc1cc(=O)oc2cc(N*)ccc12; Isovaleryl = CC(C)CC(=O)*; Boc = CC(C)(C)OC(=O)*

Legend:
[1] = system: Mobiluncus curtisii ATCC strain 35241 cell hydrolysis of Z-L-arg.L-arg.AFC; test: Enzyme inhibitors on cell hydrolysis of Z-ARG.ARG.AFC, PDMAC chromogen (Experiment X); assay type: biochemical; design: key: 0: no red color formation; 0.25: faintest red color detectable visually; 0.5: distinct red color; red color between 1.0 and 2.0 in intensity; 2.0: darkest red color possible in test system; conditions: Z-ARG.ARG.AFC as the conjugate, 1.5 hours at room temperature, water control 2
Experimental: (§1) 50 µL cell suspension, 5 µL conjugate, 10 µL inhibitor, and 35 µL buffer were added to test tubes, and the suspension incubated for 1.5 hours at room temperature. 90 µL of the incubated suspension was added to 90 µL of the chromogen solution and the color formation noted.

[2] = system: Mobiluncus curtisii ATCC strain 35241 hydrolysis of L-prolyl-beta-naphthylamide (proline iminopeptidase activity); test: Enzyme inhibitors on hydrolysis of L-prolyl-beta-naphthylamide, PDMAC chromogen (Experiment VIII); assay type: biochemical; conditions: PRO.NAM conjugate, 1.5 hours at room temperature, water control 2
Experimental: 150 µL cell suspension, 10 µL conjugate, (PRO.NAM), 10 µL inhibitor, and 30 µL buffer were added to test tubes, and the suspension incubated for 1.5 hours at room temperature. 80 µL of the suspension was removed from the incubation tubes and added to 80 µL of the chromogen solution in a second set of tubes and the color formation noted.

[3] = system: Mobiluncus curtisii ATCC strain 35241 cell hydrolysis of t-boc-L-val.L-leu.L-lys.7-amino-4-methyl coumarin; test: Enzyme inhibitors on cell hydrolysis of t-boc.VAL.LEU.LYS.7-AMC, PDMAC chromogen (Experiment X); assay type: biochemical; design: key to TEST COLOR: -: no red color formation; +/-: possible red color formation; +: clearly visible red color formation; ++: extremely intense red color formation; conditions: for TEST COLOR: t-boc.VAL.LEU.LYS.7-AMC as the conjugate, 1.5 hours at room temperature, no inhibitor 2
Experimental: as §1

[4] = system: Mobiluncus curtisii ATCC strain 35241 hydrolysis of the conjugate, L-prolyl-beta-naphthylamide; assay type: biochemical; design: key: 0: no red color formation; 0.25: faintest red color detectable visually; 0.5: distinct red color; red color between 1.0 and 2.0 in intensity; 2.0: darkest red color possible in test system; conditions: 10 µL of 100 mM metal salt, PRO.NAM conjugate
Experimental: (§2) 20 µL cell suspension, 40 µL water, 10 µL salt solution, and 10 µL conjugate solutions (PRO.NAM or ARG.NAM) were added to test tubes, and mixed thoroughly. Immediately thereafter, 20 µL aliquots were removed from each tube, and added directly to Fast Garnet GBC chromogenic indicator laminae. After 5 minutes at room temperature, the Fast Garnet GBC sheets were examined for the formation of a red color.

[5] = system: Mobiluncus curtisii ATCC strain 35241 hydrolysis of the conjugate, L-arginyl-beta-naphthylamide; test: Manganese and zinc chlorides on hydrolysis of ARG.NAM at high and low pH, Fast Garnet GBC laminae (Experiment XIII); assay type: biochemical; conditions: 10 µL of 100 mM metal salt
Experimental: as §2

[6] = system: Mobiluncus curtisii ATCC strain 35241 hydrolysis of the conjugate, L-arginyl-beta-naphthylamide (ARG.NAM); assay type: biochemical; design: key: 0: no red color formation; 0.25: faintest red color detectable visually; 0.5: distinct red color; red color between 1.0 and 2.0 in intensity; 2.0: darkest red color possible in test system; conditions: metal salt 5 mM, pH 8.0 Tris, 1 hour at room temperature, water control 2
Experimental: (§3) 20 µL cell suspension, 50 µL water, 10 µL salt solution, 10 µL buffer, and 5 µL conjugate, ARG.NAM, were added to test tubes, and the suspension incubated for 1 hour at room temperature. 100 µL of the PDMAC chromogen reagent was added, and red color formation after 5 minutes was noted.

[7] = system: Mobiluncus curtisii ATCC strain 35241 hydrolysis of the conjugate, L-arginyl-beta-naphthylamide (ARG.NAM); assay type: biochemical; conditions: pH 8.0 Tris, 1 hour at room temperature, water control 2
Experimental: as §3

[8] = system: Mobiluncus curtisii ATCC strain 35241 cell hydrolysis of the conjugate, L-prolyl-beta-naphthylamide; assay type: biochemical; design: key: -: no red color formation; +/-: possible red color formation; +: clearly visible red color formation; ++: extremely intense red color formation; conditions: PRO.NAM conjugate, 2 minutes incubation, read after 3 minutes, water control 2
Experimental: 30 µL cell suspension, 10 µL conjugate, PRO.NAM, and 10 µL salt solution or water were added to test tubes, and the suspension incubated for 2 minutes at room temperature. 20 µL of the suspension was removed from the incubation tubes and added to Fast Garnet GBC chromogenic indicator laminae. After 3 minutes, the Fast Garnet GBC indicator laminae were examined for a red color.

[9] = system: proline iminopeptidase activity in Mobiluncus curtsii ATCC strain 35241 cells; test: Diazonium dye indicator laminae in test devices with PRO.NAM lamina: color with Mobiluncus curtisii suspension (Experiment III); assay type: biochemical, Mobiluncus curtisii ATCC strain 35241; conditions: dye indicator lamina and PRO.NAM lamina in test device; about 40 microliters cell suspension; 10 minutes at room temperature
Experimental: Chromogenic indicator laminae of Fast Garnet GBC, 15 mg; Fast Black K, 57 mg; Fast Dark Blue, Fast Bordeaux, Fast Violet, and Fast Red B, 21 mg prepared as described in P[…] and proline iminopeptidase-hydrolyzable conjugate, L-prolyl-beta-naphthylamide, (13 mg/ml) prepared as described in P[…] were manually assembled into test devices (P[…]). • 1. Tests of device performance with the reporter group, beta-naphthylamine. Approximately 40 microliters of 500 micromolar beta-naphthylamine solution was added to the manually assembled kits. After 10 minutes, color formation was noted. • 2. Test kit performance with proline iminopeptidase activity in Mobiluncus curtsii ATCC strain 35241 cells.
Approximately 40 microliters of the Mobiluncus curtisii ATCC strain 35241 suspension were added to each test kit. After 10 minutes at room temperature, the appearance of color was determined.

[10] = system: Mobiluncus curtisii ATCC Strain 35241; test: Hydrolysis of conjugates by microbial cells, PDMAC chromogen in solution (Experiment IV); assay type: biochemical; conditions: preparation and pH not given
Experimental: 50 µL distilled water, 25 µL buffer, and 25 µL microbial suspension were mixed. 5 µL conjugate was added, and the mixture allowed to incubate for 10 minutes at room temperature. 100 µL PDMAC was added to each incubation, and the color score noted.

[11] = system: Mobiluncus curtisii ATCC strain 35241 hydrolysis of the conjugate, L-arginyl-beta-naphthylamide (ARG.NAM); assay type: biochemical; design: key: -: no red color formation; +/-: possible red color formation; +: clearly visible red color formation; ++: extremely intense red color formation; conditions: metal salt 5 mM, pH 8.0 Tris, 1 hour at room temperature, water control 2
Experimental: as §3

[12] = system: Mobiluncus curtisii ATCC strain 35241 proline iminopeptidase activity; test: Inhibition of proline iminopeptidase activity by detergents, PRO.NAM conjugate, PDMAC chromogen (Experiment VII); assay type: biochemical
Experimental: To one set of four test tubes were added 20 µL cell suspension, 5 µL conjugate, and 65 µL distilled water. After 10 minutes incubation at room temperature, 10 µL detergent and 90 µL chromogen solution was added and the color formation noted. To a second set of four test tubes were added 20 µL cell suspension, 5 µL conjugate, and 65 µL detergent solution. After 10 minutes incubation of these components at room temperature, 10 µL water and 90 µL chromogen solution was added and the color formation noted.

## O=S(=O)(F)Cc1ccccc1 [PMSF, phenyl methyl sulfonyl fluoride]
[1]; CONCENTRATION (Mm) 0.5
  TEST COLOR: 2
[2]; inhibitor 2 mM
  TEST COLOR: 2
[3]; CONCENTRATION (Mm) 0.5
  TEST COLOR: 1
[3]; hydrolysis of T-boc-VAL.LEU.LYS.AMC
  inhibited activity: approximately 50%

## Cc1ccc(S(=O)(=O)N[C@@H](CCCCN)C(=O)CCl)cc1 [TLCK, N-tosyl-L-lysine-chloromethyl ketone]
[1]; CONCENTRATION (Mm) 0.5
  TEST COLOR: 0.5
[3]; CONCENTRATION (Mm) 0.5
  TEST COLOR: 0

## O=C(O)CN(CCOCCOCCN(CC(=O)O)CC(=O)O)CC(=O)O [EGTA, ethyleneglycol-bis-(beta-aminoethyl ether)-N,N,N',N'-tetraacetic acid]
[1]; CONCENTRATION (Mm) 5
  TEST COLOR: 2
[2]; inhibitor 5 mM
  TEST COLOR: 2
[3]; CONCENTRATION (Mm) 5
  TEST COLOR: 2

## zinc chloride [ZnCl2]
[4]; pH 5, without salt 1
  COLOR SCORE 5 MINUTES: 1
[4]; pH 8, without salt 0.5
  COLOR SCORE 5 MINUTES: 0.5
[5]; pH 5, without salt 0
  COLOR SCORE 5 MINUTES: 0
[5]; pH 8, without salt 0.5
  COLOR SCORE 5 MINUTES: 0
[6]
  TEST COLOR: 0.5
[7]; metal salt 1 mM
  TEST COLOR: 1
[8]; metal salt 20 mM
  TEST COLOR: 2

## O[C@H](CS)[C@H](O)CS (racemic) [DTT, dithiothreitol]
[1]; CONCENTRATION (Mm) 1
  TEST COLOR: 2
[2]; inhibitor 1 mM
  TEST COLOR: 2
[3]; CONCENTRATION (Mm) 1
  TEST COLOR: 2

## Cc1ccccc1N=Nc1ccc([N+]#N)c(C)c1 [Fast Garnet GBC]
[9]
  color formation with Mobiluncus Curtisii: red

## Cc1cc(=O)oc2cc(NC(=O)[C@H](CCCCN)NC(=O)[C@H](CC(C)C)NC(=O)[C@@H](NC(=O)OC(C)(C)C)C(C)C)ccc12 [T-boc.VAL. LEU.LYS.AMC, Tert-butyloxycarbonyl-L-valyl-L-leucyl.L-lysyl-7-amino-4-methyl coumarin] (Boc-Val-Leu-Lys-{AMC})
[10]
  M. CURTISII PDMAC COLOR (PREP., pH): 2

## [Cl][Mn][Cl] [MnCl2, manganese chloride]
[4]; pH 5, without salt 1
  COLOR SCORE 5 MINUTES: 1
[4]; pH 8, without salt 0.5
  COLOR SCORE 5 MINUTES: 0.5
[5]; pH 5, without salt 0
  COLOR SCORE 5 MINUTES: 0
[5]; pH 8, without salt 0.5
  COLOR SCORE 5 MINUTES: 0
[7]; metal salt 5 mM
  TEST COLOR: 1
[8]; metal salt 20 mM
  TEST COLOR: 2

## O=C(O)c1cc[c]([Hg][Cl])cc1 [PCMB, para-chloromercuribenzoate]
[2]; inhibitor 0.5 mM
  TEST COLOR: 2

## CCN1C(=O)C=CC1=O [NEM, N-ethylmaleimide]
[1]; CONCENTRATION (Mm) 2
  TEST COLOR: 2
[2]; inhibitor 0.5 mM
  TEST COLOR: 2
[3]; CONCENTRATION (Mm) 2
  TEST COLOR: 2

## [Ca+2].[Cl-].[Cl-] [CaCl2]
[7]; metal salt 5 mM
  TEST COLOR: 2
[8]; metal salt 20 mM
  TEST COLOR: 2

## cupric chloride [CuCl2]
[11]
  TEST COLOR: 0
[7]; metal salt 1 mM
  TEST COLOR: 1
[8]; metal salt 5 mM
  TEST COLOR: 0

## mercuric chloride [HgCl2]
[8]; metal salt 1 mM
  TEST COLOR: 0

## CCCCCCCCCCCCCCCCCCOS(=O)(=O)[O-].[Na+] [sodium octadecyl sulfate]
[12]; detergent (10 µL) added after the 10 minute incubation, with the chromogen
  COLOR: red
[12]; detergent among first additions, present with cells and PRO.NAM during the 10 minute incubation, red = hydrolysis, yellow = none
  COLOR: yellow

## MgCl2
[8]; metal salt 20 mM
  TEST COLOR: 2

## Cc1ccc(S(=O)(=O)N[C@@H](Cc2ccccc2)C(=O)CCl)cc1 [TPCK, N-tosyl-L-phenylalanine chloromethyl ketone]
[1]; CONCENTRATION (Mm) 0.5
  TEST COLOR: 0.5
[2]; inhibitor 0.5 mM
  TEST COLOR: 2
[3]; CONCENTRATION (Mm) 0.5
  TEST COLOR: 0

## CrCl2
[8]; metal salt 20 mM
  TEST COLOR: 2

## CC(C)CC(=O)N[C@H](C(=O)N[C@H](C(=O)N[C@@H](CC(C)C)[C@@H](O)CC(=O)N[C@@H](C)C(=O)N[C@@H](CC(C)C)[C@@H](O)CC(=O)O)C(C)C)C(C)C [pepstatin] (Isovaleryl-VV[Sta]A[Sta]-OH)
[1]; CONCENTRATION (Mm) 0.5
  TEST COLOR: 2
[2]; inhibitor 0.5 mM
  TEST COLOR: 2
[3]; CONCENTRATION (Mm) 0.5
  TEST COLOR: 2
